Data: ChEMBL document CHEMBL1131207, “Discovery and evaluation of a series of 3-acylindole imidazopyridine platelet-activating factor antagonists” (J Med Chem, 1998)

How the values were obtained:
[1] = target: Platelet-activating factor receptor (Rattus norvegicus) (UniProt P46002); test: Ability to block the effect of exogenously administered PAF upon intravenous administration in PAF-induced rat skin permeability assay; type: functional, organism-based
[2] = target: Platelet-activating factor receptor (Rattus norvegicus) (UniProt P46002); test: Tested in vivo for to block the effect of exogenously administered PAF upon oral administration in PAF-induced rat skin permeability assay; type: functional, organism-based

Platelet-activating factor receptor (Rattus norvegicus), sequence (P46002 whole entry): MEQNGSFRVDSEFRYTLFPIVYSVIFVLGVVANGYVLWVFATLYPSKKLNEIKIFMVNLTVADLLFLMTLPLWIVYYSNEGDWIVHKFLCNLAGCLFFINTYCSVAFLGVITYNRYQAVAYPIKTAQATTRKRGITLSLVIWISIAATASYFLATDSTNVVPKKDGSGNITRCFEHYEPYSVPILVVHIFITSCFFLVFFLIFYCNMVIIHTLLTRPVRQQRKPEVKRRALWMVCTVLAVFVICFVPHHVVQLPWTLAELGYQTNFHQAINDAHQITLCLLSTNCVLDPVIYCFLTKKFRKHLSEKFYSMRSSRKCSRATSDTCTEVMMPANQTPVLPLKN

SMILES	ED50 [1] [mg/kg]	ED50 [2] [mg/kg]
COC(=O)c1cccc2c1c(C(=O)c1ccc(Cn3c(C)nc4c[n+]([O-])ccc43)cc1)cn2C(=O)N(C)C	0.14	
CCc1cccc2c1c(C(=O)c1ccc(Cn3c(C)nc4cnccc43)cc1)cn2C(=O)N(C)C	0.003	0.078
Cc1[nH]c2ccccc2c1C(=O)c1ccc(Cn2c(C)nc3cnccc32)cc1	> 1	
COC(=O)c1cccc2c1c(C(=O)CCCCCCn1c(C)nc3cnccc31)cn2C(=O)N(C)C	> 1	
Cc1cccc2c1c(C(=O)CN1CCC(n3c(C)nc4cnccc43)CC1)cn2C(=O)N(C)C	0.005	0.14
Cc1nc2cnccc2n1Cc1ccc(C(=O)c2cn(C(=O)N(C)C)c3cccc(F)c23)cc1	0.18	
COC(=O)c1cccc2c1c(C(=O)c1ccc(Cn3c(C)nc4cnccc43)cc1)cn2C(=O)N(C)C		0.22
Cc1nc2cnccc2n1Cc1ccc(C(=O)c2cn(C(=O)N(C)C)c3cccc(OC(=O)N(C)C)c23)cc1	0.005	0.34
Cc1nc2cnccc2n1CC(=O)c1cn(C(=O)N(C)C)c2cc(-c3ccc(F)cc3)ccc12	> 1	
COC(=O)c1cccc2c1c(C(=O)c1ccc(Cn3c(C)nc4ccncc43)cc1)cn2C(=O)N(C)C	0.24	
COC(=O)c1ccc(C(=O)OC)c2c(C(=O)c3ccc(Cn4c(C)nc5cnccc54)cc3)c[nH]c12	0.035	0.71
COC(=O)c1cccc2c1c(C(=O)C1CCC(Cn3c(C)nc4cnccc43)CC1)cn2C(=O)N(C)C (stereo not given)	0.02	> 1
C#Cc1cccc2c1c(C(=O)c1ccc(Cn3c(C)nc4c[n+]([O-])ccc43)c(F)c1)cn2C(=O)N(C)C	> 0.5	
COC(=O)c1cccc2c1c(C(=O)c1ccc(Cn3c(C)nc4cnccc43)cc1)cn2C(C)C	0.1	
Cc1nc2cnccc2n1Cc1ccc(C(=O)c2cn(C(=O)N(C)C)c3cccc(-c4ccc(F)cc4)c23)cc1	0.004	0.45
COC(=O)c1cc(-c2ccc(F)cc2)cc2c1c(C(=O)c1ccc(Cn3c(C)nc4cnccc43)cc1)cn2C(=O)N(C)C	0.002	0.64
COC(=O)c1cccc2[nH]cc(C(=O)c3ccc(Cn4c(C)nc5cnccc54)cc3)c12	0.15	
COC(=O)c1cccc2c1c(C(=O)c1ccc(Cn3c(C)nc4cnccc43)cc1)cn2C(=O)N1CCCC1	0.005	1.2
Cc1nc2cnccc2n1Cc1ccc(C(=O)c2cn(C(=O)N(C)C)c3cccc(C#N)c23)cc1	0.23	
COC(=O)c1cccc2c1c(C(=O)Cc1ccc(-n3c(C)nc4cnccc43)cc1)cn2C(=O)N(C)C	0.005	0.17
Cc1nc2cnccc2n1Cc1ccc(C(=O)c2cn(C(=O)N(C)C)c3cccc(C(=O)N(C)C)c23)cc1	0.028	1.3
COC(=O)c1ccc2c(c1)c(C(=O)c1ccc(Cn3c(C)nc4cnccc43)cc1)cn2C(=O)N(C)C	> 1	
Cc1nc2cnccc2n1Cc1ccc(C(=O)c2cn(C(=O)N(C)C)c3cccc(C(=O)OC(C)C)c23)cc1	0.006	
C#Cc1cccc2c1c(C(O)c1ccc(Cn3c(C)nc4cnccc43)c(F)c1)cn2C(=O)N(C)C (stereo not given)	0.007	
Cc1nc2cnccc2n1Cc1ccc(C(=O)c2cn(C(=O)N(C)C)c3cccc(C(=O)OCc4ccccc4)c23)cc1	0.12	
CCOCCn1cc(C(=O)c2ccc(Cn3c(C)nc4cnccc43)cc2)c2c(C(=O)OC)cccc21	0.012	1.1

SMILES	ED50 [1] [mg/kg]	ED50 [2] [mg/kg]
Cc1nc2cnccc2n1Cc1ccc(S(=O)(=O)c2cn(C(=O)N(C)C)c3ccccc23)cc1	> 1	
COC(=O)c1cc(Br)cc2c1c(C(=O)c1ccc(Cn3c(C)nc4cnccc43)cc1)cn2C(=O)N(C)C	0.009	0.83
COC(=O)c1cccc2c1c(C(=O)c1ccc(Cn3c(C)nc4cccnc43)cc1)cn2C(=O)N(C)C	1.2	
Cc1ccc(C)c2c(C(=O)c3ccc(Cn4c(C)nc5cnccc54)cc3)c[nH]c12	0.054	
Cc1nc2cnccc2n1Cc1ccc(C(=O)c2c[nH]c3c(OCc4ccccc4)cccc23)cc1	0.24	
Cc1nc2cnccc2n1CCCN(C)CC(=O)c1cn(C(=O)N(C)C)c2cc(-c3ccc(F)cc3)ccc12	> 1	
Cc1nc2cnccc2n1Cc1ccc(C(=O)c2c[nH]c3cc(-c4ccc(F)cc4)ccc23)cc1	1.3	
COC(=O)c1[nH]c2cccc(OC)c2c1C(=O)c1ccc(Cn2c(C)nc3cnccc32)cc1	0.65	
COC(=O)c1cccc2c1c(C(=O)c1ccc(Cn3c(C)nc4cnccc43)cc1)cn2S(=O)(=O)N(C)C	0.074	
COC(=O)c1cccc2c1c(C(=O)c1ccc(Cn3c(C)nc4cnccc43)cc1)cn2CC(=O)N(C)C	0.012	2.4
Cc1nc2cnccc2n1Cc1ccc(C(=O)c2cn(C(=O)N(C)C)c3ccccc23)cc1	0.18	
Cc1nc2cnccc2n1Cc1ccc(C(=O)c2cn(C(=O)N(C)C)c3cccc(Br)c23)cc1	0.007	0.13
COC(=O)c1cccc2c1c(C(=O)CN1CCC(n3c(C)nc4cnccc43)CC1)cn2C(=O)N(C)C	0.006	> 1
Cc1nc2cnccc2n1Cc1ccc(C(=O)c2cn(C(=O)N(C)C)c3cccc(-c4ccco4)c23)cc1	0.007	0.79
COC(=O)c1cccc2c1c(C(=O)c1ccc(Cn3c(C)nc4ccccc43)cc1)cn2C(=O)N1CCCC1	1	
CCOC(=O)c1cccc2c1c(C(=O)c1ccc(Cn3c(C)nc4cnccc43)cc1)cn2C(=O)N(C)C	0.006	> 1
COC(=O)c1cccc2c1c(C(=O)CCCCCn1c(C)nc3cnccc31)cn2C(=O)N(C)C	0.013	1.1
COC(=O)c1cccc2c1c(S(=O)(=O)c1ccc(Cn3c(C)nc4cnccc43)cc1)cn2C(=O)N(C)C	0.48	
COC(=O)c1cccc2c1c(C(=O)c1ccc(Cn3c(C)nc4cnccc43)cc1)cn2CC(=O)C(C)(C)C	0.036	
COC(=O)c1cccc2c1c(C(=O)CCCCn1c(C)nc3cnccc31)cn2C(=O)N(C)C	> 1	
Cc1nc2cnccc2n1C1CCN(C(=O)c2cn(C(=O)N(C)C)c3cc(-c4ccc(F)cc4)ccc23)CC1	> 1	
C#Cc1cccc2[nH]cc(C(=O)c3ccc(Cn4c(C)nc5cnccc54)c(F)c3)c12	0.018	
COC(=O)c1cccc2c1c(C(=O)c1ccc(Cn3c(C)nc4ccccc43)cc1)cn2C(=O)N(C)C	> 1	
COC(=O)c1cc(-c2cc3ccccc3o2)cc2c1c(C(=O)c1ccc(Cn3c(C)nc4cnccc43)cc1)cn2C(=O)N(C)C	0.011	
C#Cc1cccc2c1c(C(=O)c1ccc(Cn3c(C)nc4cnccc43)cc1)cn2C(=O)N(C)C	0.003	0.14
Cc1nc2cnccc2n1Cc1ccc(C(=O)c2cn(C(=O)N(C)C)c3cccc(C(=O)O)c23)cc1	> 1	

SMILES	ED50 [1] [mg/kg]	ED50 [2] [mg/kg]
COC(=O)c1cccc2c1c(C(=O)c1ccc(Cn3c(C)nc4ncccc43)cc1)cn2C(=O)N(C)C	0.026	
Cc1nc2cnccc2n1Cc1ccc(C(=O)c2cn(C(=O)N(C)C)c3cccc(O)c23)cc1	> 1	
Cc1nc2cnccc2n1Cc1ccc(C(=O)c2c[nH]c3c(-c4ccc(F)cc4)cccc23)cc1	> 1	
COC(=O)c1cccc2c1c(C(=O)c1ccc(Cn3c(C)nc4cnccc43)cc1)cn2C(N)=O	0.12	
Cc1nc2cnccc2n1CCCCCC(=O)c1cn(C(=O)N(C)C)c2cccc(-c3ccc(F)cc3)c12	0.005	> 1
Cc1nc2cnccc2n1Cc1ccc(C(=O)c2cn(C(=O)N(C)C)c3ccc(-c4ccc(F)cc4)cc23)cc1	> 1	
COC(=O)c1cccc2c1c(C(=O)c1ccc(Cn3c(C)nc4cnccc43)c(F)c1)cn2C(=O)N(C)C	0.006	0.36
COC(=O)c1cc(C#Cc2ccccc2)cc2c1c(C(=O)c1ccc(Cn3c(C)nc4cnccc43)cc1)cn2C(=O)N(C)C	0.004	0.6
CCOCCn1cc(C(=O)CN2CCC(n3c(C)nc4cnccc43)CC2)c2c(Cl)cccc21	0.068	
Cc1nc2cnccc2n1CN1CCN(S(=O)(=O)c2cn(C(=O)N(C)C)c3cc(-c4ccc(F)cc4)ccc23)CC1	0.019	
C#Cc1cccc2c1c(C(=O)c1ccc(Cn3c(C)nc4cnccc43)c(F)c1)cn2C(=O)NC	0.006	
Cc1nc2cnccc2n1CCN1CCN(C(=O)c2cn(C(=O)N(C)C)c3cc(-c4ccc(F)cc4)ccc23)CC1	> 1	
Cc1nc2cnccc2n1Cc1ccc(C(=O)c2cn(C(=O)N(C)C)c3cccc(OC(=O)N(C)C)c23)cc1F	0.005	2.7
CNC(=O)n1cc(C(=O)c2ccc(Cn3c(C)nc4cnccc43)cc2)c2c(C(=O)OC)cccc21	0.007	
COC(=O)c1cccc2c1c(C(=O)c1ccc(Cn3c(C)nc4c(C)nc(C)cc43)cc1)cn2C(=O)N(C)C	> 1	
COC(=O)c1cccc2c1c(C(=O)c1ccc(Cn3c(C)nc4cnccc43)s1)cn2C(=O)N(C)C	0.12	
Cc1nc2cnccc2n1CC1CCN(C(=O)c2cn(C(=O)N(C)C)c3cc(-c4ccc(F)cc4)ccc23)CC1	0.022	2.2
Cc1nc2cnccc2n1Cc1ccc(C(=O)c2cn(C(=O)N(C)C)c3cccc(Cl)c23)cc1	0.008	0.12
Cc1nc2cnccc2n1Cc1csc(C(=O)c2cn(C(=O)N(C)C)c3cc(-c4ccc(F)cc4)ccc23)n1	0.35	
Cc1nc2ncccc2n1Cc1ccc(C(=O)c2cn(C(=O)N(C)C)c3cccc(Cl)c23)cc1	0.34	
Cc1cccc2c1c(C(=O)c1ccc(Cn3c(C)nc4cnccc43)cc1)cn2C(=O)N(C)C	0.004	0.2
COC(=O)c1cccc2c1c(C(=O)c1ccc(Cn3c(C)nc4c(O)nccc43)cc1)cn2C(=O)N(C)C	0.25	
COC(=O)c1cccc2c1c(C(=O)c1ccc(Cn3c(C)nc4cnccc43)cc1)cn2S(=O)(=O)C(C)C	0.12	
Cc1nc2ccncc2n1Cc1ccc(C(=O)c2cn(C(=O)N(C)C)c3cc(-c4ccc(F)cc4)ccc23)cc1	1.1	
COc1cccc2c1c(C(=O)c1ccc(Cn3c(C)nc4cnccc43)cc1)cn2C(=O)N(C)C	0.007	0.22
Cc1nc2cnccc2n1Cc1ccc(C(=O)c2cn(C(=O)N(C)C)c3cccc(NC(=O)c4ccccc4)c23)cc1	0.11	
